Measured values: paper PMC2206373, “Identification of an altered peptide ligand based on the endogenously presented, rheumatoid arthritis-associated, human cartilage glycoprotein-39(263–275) epitope: an MHC anchor variant peptide for immune modulation” (Arthritis Research & Therapy, 2007)
Read-outs that look alike come from different tables or passages of the source. Non-standard residues stand in square brackets, D forms with d. Residues, ends and D or L forms follow the SMILES beside them. No end group written: not given here. *: point of attachment. Phe(4-F) = N[C@@H](Cc1ccc(F)cc1)C(=O)O; 3Pal = N[C@@H](Cc1cccnc1)C(=O)O; Tic = O=C(O)[C@@H]1Cc2ccccc2CN1; Cha = N[C@@H](CC1CCCCC1)C(=O)O; Bn = c1ccc(C*)cc1

What was measured:
HLA-DR4(B1*0401) = HLA-DR4(B1*0401) (Homo sapiens, UniProt P01903+P01911, A100K/A169T/F76Y/I96L/K127E/L162R/M171V/N62H/P40V/Q125Y/R42H/S133A/S149N/S66Y/V115G/V209L/W38E); experiment: HLA-DR4 competition peptide binding assay; conditions: competition with biotinylated HA307-319 (Y309F) 50 nM, purified HLA-DR4 30 nM, pH 5, 48 h, room temperature
Procedure: HLA-DR bound marker peptide was separated from free marker peptide and the amount of bound marker peptide was detected and quantified by enhanced chemoluminescense. Inhibition curves were generated and the IC50 was determined. The concentration of competitor peptide inducing 50% inhibition of marker peptide binding was determined, and expressed as the 50% inhibitory concentration (IC50 in μM).

[1] = test system: popliteal lymph node cells from HC gp-39(263–275)-immunized huCD4, HLA-DR4 transgenic mice; experiment: Antigen-specific cytokine production of popliteal lymph node cells from WT peptide-immunized mice; assay type: cell-based, mouse; conditions: Figure 4a; WT peptide-immunized HLA-DR4trg mice
Procedure: (§1) Mice, obtained from L Fugger (Oxford, UK), were immunized in the hind footpads with 2 × 50 μg of purified recombinant HC gp-39, with 2 × 100 μg of the WT peptide or with 2 × 100 μg of the APL (F265(Dip); compound 28; Figure 1) mixed in IFA. Seven days later, popliteal lymph node cell suspensions (1 to 2 × 10^5 cells/well) were stimulated in vitro with HC gp-39 (50, 10 or 2 μg/ml), HC gp-39(263–275) or APL (10, 2 and 0.4 μg/ml). At 96 h, 50 μl of culture medium was harvested for analysis of antigen-specific cytokine production using Luminex technology (mouse cytokine 18 Plex Panel, catalogue no. 171-F11181, Biorad, Bio-Rad Laboratories, Hercules, CA, USA). In addition, cultures were labelled with tritiated thymidine (for 18 h) and antigen-specific proliferation was determined. We state that all animal experimentation received ethics approval and animals were treated according to the recognized guidelines.

T cell hybridoma 14G11 = experiment: T hybridoma 14G11 IL-2 response; assay type: cell-based, mouse; conditions: for T hybridoma (SI) 14G11: Figure 1, IL-2 production, duplicate or triplicate, background 7,152 counts, ±30% of WT response = super/partial agonist; for T hybridoma (SI) 14G11 / Hybridoma response (SI) 14G11: DRB1*0401 BLCL as APC; for Hybridoma response (SI) 14G11: Table 1, IL-2 by ELISA after 48 h, peptide 10 μg/ml, SI > 2 positive, background 8,598 counts, representative of at least three experiments
Procedure: (§2) The T cell hybridomas, provided by G Sonderstrup (Stanford, CA, USA), were generated as described. In brief, human CD4, HLA-DRA*101/HLA-DRB*0401 triple transgenic (HLA-DR4trg) mice (devoid of I-Aβ) were immunized in the footpad with 50 μg of purified HC gp-39 mixed in incomplete Freund's adjuvant (IFA). Draining lymph nodes were isolated and T-cell hybridomas were generated by polyethylene glycol fusion of primed and in vitro antigen-restimulated lymph node cells with the AKR BW5147 fusion partner. Following fusion, growth-positive hybridoma wells were screened for reactivity to HC gp-39 and a set of 55 peptides (16 amino acids in length) covering the entire HC gp-39 sequence. HLA-DR4(B1*0401)-restricted hybridomas responsive to both the HC gp-39 protein and the immunodominant epitope 263–275 of HC gp-39 (for example, 5G11, 8B12, 14G11 and 20H5) were cloned, subcloned, characterised and selected for further study.
(§3) HC gp-39-specific IL-2 production by T hybridomas was measured in wells of round-bottomed microtiter plates. Hybridoma cells (2 to 5 × 10^4) and irradiated APC (0.5 to 1 × 10^5; 12,000 to 16,000 RAD) from the B lymphoblastoid cell line (BLCL) carrying the DRB1*0401 specificity were incubated in 150 μl volumes. Antigen was added in 50 μl volumes to duplicate wells. After 48 h, 100 μl of the culture supernatant was assayed for IL-2 production using a sandwich ELISA with Pharmingen antibodies specific for mouse IL-2. The antigen sensitivity of the hybridomas to both peptide and protein was determined (Figure 2). […] In later assays, an excess of peptide or APL (10 μg/ml), inducing maximal responses in all hybridomas, was tested.

[2] = test system: popliteal lymph node cells from F265(Dip)-immunized HLA-DR4trg mice; experiment: Antigen-specific cytokine production of popliteal lymph node cells from F265(Dip)-immunized mice; assay type: cell-based, mouse; conditions: Figure 4b
Procedure: as §1

T cell hybridoma 5G11 = experiment: T hybridoma 5G11 IL-2 response; assay type: cell-based, mouse; conditions: for T hybridoma (SI) 5G11: Figure 1, IL-2 production, duplicate or triplicate, background 29,203 counts, ±30% of WT response = super/partial agonist; for T hybridoma (SI) 5G11 / Hybridoma response (SI) 5G11: DRB1*0401 BLCL as APC; for Hybridoma response (SI) 5G11: Table 1, IL-2 by ELISA after 48 h, peptide 10 μg/ml, SI > 2 positive, background 8,147 counts, representative of at least three experiments
Procedure: as §2, §3

[3] = test system: popliteal lymph node cells from HC gp-39(263–275)-immunized huCD4, HLA-DR4 transgenic mice; experiment: Antigen-specific proliferation of popliteal lymph node cells from WT peptide-immunized mice; assay type: cell-based, mouse; conditions: Figure 4a; WT peptide-immunized HLA-DR4trg mice
Procedure: as §1

T cell hybridoma 8B12 = experiment: T hybridoma 8B12 IL-2 response; assay type: cell-based, mouse; conditions: for T hybridoma (SI) 8B12: Figure 1, IL-2 production, duplicate or triplicate, background 16,288 counts, ±30% of WT response = super/partial agonist; for T hybridoma (SI) 8B12 / Hybridoma response (SI) 8B12: DRB1*0401 BLCL as APC; for Hybridoma response (SI) 8B12: Table 1, IL-2 by ELISA after 48 h, peptide 10 μg/ml, SI > 2 positive, background 7,470 counts, representative of at least three experiments
Procedure: as §2, §3

T cell hybridoma 20H5 = experiment: T hybridoma 20H5 IL-2 response; assay type: cell-based, mouse; conditions: Table 1; IL-2 by ELISA after 48 h, peptide 10 μg/ml, DRB1*0401 BLCL as APC; SI > 2 positive; background 35,749 counts; representative of at least three experiments
Procedure: as §2, §3

[4] = Figure 1, read-out: DRB1*0401 binding IC50
[5] = Figure 1 experiment, compared with WT peptide
[6] = Table 1, geometric mean of two experiments, read-out: HLA-DR binding IC50

Compound | IC50 (HLA-DR4(B1*0401); [4]) [nM] | T hybridoma (SI) 14G11 (T cell hybridoma 14G11) [SI] | T hybridoma (SI) 5G11 (T cell hybridoma 5G11) [SI] | T hybridoma (SI) 8B12 (T cell hybridoma 8B12) [SI] | also measured
CC(C)C[C@H](NC(=O)[C@@H](NC(=O)[C@@H]1Cc2ccccc2CN1C(=O)[C@H](CO)NC(=O)[C@@H](N)CCCNC(=N)N)[C@@H](C)O)C(=O)N[C@@H](C)C(=O)N[C@@H](CO)C(=O)N[C@@H](CO)C(=O)N[C@@H](CCC(=O)O)C(=O)N[C@H](C(=O)NCC(=O)N[C@H](C(=O)NCC(=O)O)C(C)C)[C@@H](C)O [Compound 27] (H-RS[Tic]TLASSETGVG-OH) | 21 | 21 | 12 | 8 | Ex vivo recall IFNγ production in words [1]: increased production; Ex vivo recall Mip1α production in words [1]: increased production; Ex vivo recall RANTES production in words [1]: increased production; Hybridoma 14G11 activation (IL-2 production) in words (T cell hybridoma 14G11; [5]): partial activation; In vitro recall IFNγ production in words [2]: failed to induce significant levels; In vitro recall Mip1α production in words [2]: failed to induce significant levels; In vitro recall RANTES production in words [2]: failed to induce significant levels; Hybridoma 5G11 activation (IL-2 production) in words (T cell hybridoma 5G11; [5]): partial activation; Ex vivo recall proliferative response in words [3]: comparable proliferative responses; Hybridoma 8B12 activation (IL-2 production) in words (T cell hybridoma 8B12; [5]): partial activation
TLASSETGVG [Compound 7] |  |  |  |  | IC50 (HLA-DR4(B1*0401); [6]): > 100000 nM; Hybridoma response (SI) 14G11 (T cell hybridoma 14G11): 1 SI; Hybridoma response (SI) 5G11 (T cell hybridoma 5G11): 1 SI; Hybridoma response (SI) 8B12 (T cell hybridoma 8B12): 1 SI; Hybridoma response (SI) 20H5 (T cell hybridoma 20H5): 5 SI
LASSETGVG [Compound 8] |  |  |  |  | IC50 (HLA-DR4(B1*0401); [6]): > 100000 nM; Hybridoma response (SI) 14G11 (T cell hybridoma 14G11): 1 SI; Hybridoma response (SI) 5G11 (T cell hybridoma 5G11): 1 SI; Hybridoma response (SI) 8B12 (T cell hybridoma 8B12): 1 SI; Hybridoma response (SI) 20H5 (T cell hybridoma 20H5): 1 SI

More lines, in order of falling IC50 (HLA-DR4(B1*0401); [4]), values ahead:

IC50 (HLA-DR4(B1*0401); [4]) [nM] | Compound | T hybridoma (SI) 14G11 (T cell hybridoma 14G11) [SI] | T hybridoma (SI) 5G11 (T cell hybridoma 5G11) [SI] | T hybridoma (SI) 8B12 (T cell hybridoma 8B12) [SI] | also measured
16 | CC(C)C[C@H](NC(=O)[C@@H](NC(=O)[C@H](Cc1cccnc1)NC(=O)[C@H](CO)NC(=O)[C@@H](N)CCCNC(=N)N)[C@@H](C)O)C(=O)N[C@@H](C)C(=O)N[C@@H](CO)C(=O)N[C@@H](CO)C(=O)N[C@@H](CCC(=O)O)C(=O)N[C@H](C(=O)NCC(=O)N[C@H](C(=O)NCC(=O)O)C(C)C)[C@@H](C)O [Compound 29] (H-RS[3Pal]TLASSETGVG-OH) | 44 | 23 | 19 | 
12 | CC(C)C[C@H](NC(=O)[C@@H](NC(=O)[C@H](Cc1ccc(F)cc1)NC(=O)[C@H](CO)NC(=O)[C@@H](N)CCCNC(=N)N)[C@@H](C)O)C(=O)N[C@@H](C)C(=O)N[C@@H](CO)C(=O)N[C@@H](CO)C(=O)N[C@@H](CCC(=O)O)C(=O)N[C@H](C(=O)NCC(=O)N[C@H](C(=O)NCC(=O)O)C(C)C)[C@@H](C)O [Compound 30] (H-RS[Phe(4-F)]TLASSETGVG-OH) | 27 | 29 | 17 | 
7 | CC(C)C[C@H](NC(=O)[C@@H](NC(=O)[C@H](COCc1ccccc1)NC(=O)[C@H](CO)NC(=O)[C@@H](N)CCCNC(=N)N)[C@@H](C)O)C(=O)N[C@@H](C)C(=O)N[C@@H](CO)C(=O)N[C@@H](CO)C(=O)N[C@@H](CCC(=O)O)C(=O)N[C@H](C(=O)NCC(=O)N[C@H](C(=O)NCC(=O)O)C(C)C)[C@@H](C)O [Compound 35] (H-RSS(Bn)TLASSETGVG-OH) | 31 | 28 | 20 | 
7 | CC(C)C[C@H](NC(=O)[C@@H](NC(=O)[C@H](CC1CCCCC1)NC(=O)[C@H](CO)NC(=O)[C@@H](N)CCCNC(=N)N)[C@@H](C)O)C(=O)N[C@@H](C)C(=O)N[C@@H](CO)C(=O)N[C@@H](CO)C(=O)N[C@@H](CCC(=O)O)C(=O)N[C@H](C(=O)NCC(=O)N[C@H](C(=O)NCC(=O)O)C(C)C)[C@@H](C)O [Compound 25] (H-RS[Cha]TLASSETGVG-OH) | 26 | 32 | 18 | 
